ChEMBL document CHEMBL5230119, “Development of differentiation modulators and targeted agents for treating neuroblastoma” (Eur J Med Chem, 2020)
pIC50: −log10 of the molar value.

Tests used:
[1] = Synergistic antiproliferative activity against MYCN amplified human Neuroblastoma cell in presence of OTX-015; type: functional, cell-based
IMR-32 = experiment: Antiproliferative activity against human IMR-32 cells assessed as cell growth inhibition; type: functional, cell-based
[2] = Synergistic antiproliferative activity against MYCN amplified human Neuroblastoma cell in presence of JQ1

## Cc1sc2c(c1C)C(c1ccc(Cl)cc1)=N[C@@H](CC(=O)NC(C)(C)C)c1nnc(C)n1-2
[1]
  pIC50: 5.83

## O=C(c1ccc(F)c(F)c1Nc1ccc(I)cc1F)N1CC(O)([C@@H]2CCCCN2)C1 [COBIMETINIB]
IMR-32
  pIC50: 7.15

## Cc1sc2c(c1C)C(c1ccc(Cl)cc1)=N[C@@H](CC(=O)Nc1ccc(O)cc1)c1nnc(C)n1-2 [BIRABRESIB]
[2]
  pIC50: 6.08
